Test results: ChEMBL document CHEMBL5696442, “Discovery of type II inhibitors of TGFβ-activated kinase 1 (TAK1) and mitogen-activated protein kinase kinase kinase kinase 2 (MAP4K2)” (J Med Chem, 2015)

Tests used:
[1] = molecular target: Serine/threonine-protein kinase 38-like (Homo sapiens) (UniProt Q9Y2H1); test: Inhibition of NDR2 Lys1 labeling site harbouring DTGHIYAMKILR in human A-375 cells at 0.5 uM by KiNativ Profiling analysis relative to control; format: cell-based
[2] = molecular target: T1, Mitogen-activated protein kinase kinase kinase 3 (Homo sapiens) (UniProt Q99759); test: Inhibition of MAP3K3 Lys2 labeling site in human A-375 cells at 0.5 uM by KiNativ Profiling analysis relative to control; format: cell-based
T1 sequence (whole entry): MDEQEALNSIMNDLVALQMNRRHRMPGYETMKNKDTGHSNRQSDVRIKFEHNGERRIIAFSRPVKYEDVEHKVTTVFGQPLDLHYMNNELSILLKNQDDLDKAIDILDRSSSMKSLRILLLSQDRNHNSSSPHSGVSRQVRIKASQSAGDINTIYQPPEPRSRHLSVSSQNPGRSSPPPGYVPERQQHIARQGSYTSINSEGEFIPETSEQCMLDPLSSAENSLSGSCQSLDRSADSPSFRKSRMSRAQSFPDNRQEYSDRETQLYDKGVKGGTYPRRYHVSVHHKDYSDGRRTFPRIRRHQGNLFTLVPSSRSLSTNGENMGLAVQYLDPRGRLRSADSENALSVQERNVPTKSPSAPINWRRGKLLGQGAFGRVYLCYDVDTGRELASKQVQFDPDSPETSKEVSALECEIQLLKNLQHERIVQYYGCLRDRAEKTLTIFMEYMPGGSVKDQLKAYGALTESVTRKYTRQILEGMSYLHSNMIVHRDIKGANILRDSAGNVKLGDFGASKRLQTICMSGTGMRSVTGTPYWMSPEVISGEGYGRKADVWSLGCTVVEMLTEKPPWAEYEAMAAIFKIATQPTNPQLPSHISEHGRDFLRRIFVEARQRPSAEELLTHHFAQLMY

[3] = molecular target: T2, Tyrosine-protein kinase ABL2 (Homo sapiens, UniProt P42684); test: Inhibition of ARG Lys1 labeling site in human A-375 cells at 0.05 uM by KiNativ Profiling analysis relative to control; format: cell-based
T2 sequence (P42684 whole entry): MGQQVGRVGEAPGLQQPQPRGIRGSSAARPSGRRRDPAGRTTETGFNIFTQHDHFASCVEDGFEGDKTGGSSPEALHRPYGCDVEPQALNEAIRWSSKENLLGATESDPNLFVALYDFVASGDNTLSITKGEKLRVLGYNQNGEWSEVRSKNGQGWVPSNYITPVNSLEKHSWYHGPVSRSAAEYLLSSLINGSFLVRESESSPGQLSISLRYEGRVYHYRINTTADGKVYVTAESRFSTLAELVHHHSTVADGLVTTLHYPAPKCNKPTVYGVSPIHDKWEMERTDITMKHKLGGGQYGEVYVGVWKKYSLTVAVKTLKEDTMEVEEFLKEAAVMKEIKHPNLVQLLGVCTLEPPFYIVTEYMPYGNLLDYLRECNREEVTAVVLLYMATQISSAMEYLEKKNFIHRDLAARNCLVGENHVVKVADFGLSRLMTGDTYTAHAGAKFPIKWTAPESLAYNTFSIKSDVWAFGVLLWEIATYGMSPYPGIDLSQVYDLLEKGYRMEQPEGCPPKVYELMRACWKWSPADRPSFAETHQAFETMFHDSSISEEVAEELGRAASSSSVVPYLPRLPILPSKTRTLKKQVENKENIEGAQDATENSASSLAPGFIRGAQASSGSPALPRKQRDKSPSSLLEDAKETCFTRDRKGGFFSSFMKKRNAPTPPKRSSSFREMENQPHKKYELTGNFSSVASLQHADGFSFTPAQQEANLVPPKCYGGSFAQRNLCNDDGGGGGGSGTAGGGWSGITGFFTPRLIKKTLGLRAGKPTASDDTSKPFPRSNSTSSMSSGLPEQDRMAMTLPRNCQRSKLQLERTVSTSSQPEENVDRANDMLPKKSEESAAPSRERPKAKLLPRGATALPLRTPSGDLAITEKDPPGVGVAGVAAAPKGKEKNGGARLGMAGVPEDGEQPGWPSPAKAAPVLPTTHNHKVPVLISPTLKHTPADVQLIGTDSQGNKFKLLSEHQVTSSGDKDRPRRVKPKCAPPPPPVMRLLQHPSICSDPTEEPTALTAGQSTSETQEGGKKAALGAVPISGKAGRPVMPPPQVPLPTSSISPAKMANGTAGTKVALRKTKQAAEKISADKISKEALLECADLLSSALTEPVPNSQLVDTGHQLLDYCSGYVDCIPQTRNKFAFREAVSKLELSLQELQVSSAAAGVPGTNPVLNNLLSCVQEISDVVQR

[4] = molecular target: Mitogen-activated protein kinase kinase kinase 20 (Homo sapiens, UniProt Q9NYL2); test: Inhibition of ZAK Lys1 labeling site in human A-375 cells at 5 uM by KiNativ Profiling analysis relative to control; format: cell-based
Chain of Mitogen-activated protein kinase kinase kinase 20 (Q9NYL2 2-800 limits assumed): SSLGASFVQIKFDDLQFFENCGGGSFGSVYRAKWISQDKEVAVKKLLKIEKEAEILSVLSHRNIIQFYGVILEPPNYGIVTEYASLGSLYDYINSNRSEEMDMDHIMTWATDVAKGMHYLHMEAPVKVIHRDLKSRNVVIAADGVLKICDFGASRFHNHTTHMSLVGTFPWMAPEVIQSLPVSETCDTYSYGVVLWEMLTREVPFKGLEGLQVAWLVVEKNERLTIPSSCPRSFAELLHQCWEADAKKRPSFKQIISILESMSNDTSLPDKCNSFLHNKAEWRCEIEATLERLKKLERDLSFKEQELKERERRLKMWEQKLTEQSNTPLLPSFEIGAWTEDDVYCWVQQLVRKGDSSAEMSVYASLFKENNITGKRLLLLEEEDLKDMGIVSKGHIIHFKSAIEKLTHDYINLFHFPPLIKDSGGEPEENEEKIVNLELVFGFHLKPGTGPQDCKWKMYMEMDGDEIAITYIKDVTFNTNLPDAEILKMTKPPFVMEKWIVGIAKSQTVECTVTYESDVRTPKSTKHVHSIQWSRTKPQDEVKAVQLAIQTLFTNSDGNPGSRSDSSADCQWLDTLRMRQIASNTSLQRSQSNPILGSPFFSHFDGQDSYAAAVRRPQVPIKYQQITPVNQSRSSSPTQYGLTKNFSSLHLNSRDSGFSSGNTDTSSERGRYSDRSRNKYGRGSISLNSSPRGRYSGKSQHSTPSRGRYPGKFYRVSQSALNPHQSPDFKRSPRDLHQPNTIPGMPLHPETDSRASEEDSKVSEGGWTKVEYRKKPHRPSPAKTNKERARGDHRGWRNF

[5] = molecular target: Serine/threonine-protein kinase ATR (Homo sapiens) (UniProt Q13535); test: Inhibition of ATR ATP labeling site in human Huh-7 cells at 10 uM by KiNativ Profiling analysis relative to control; format: cell-based
[6] = molecular target: Serine/threonine-protein kinase N2 (Homo sapiens) (UniProt Q16513); test: Inhibition of PKN2 (unknown origin) at 1 uM by Ambit Kinomescan binding assay relative to control; values are per cent of control
[7] = molecular target: Serine/threonine-protein kinase 24 (Homo sapiens) (UniProt Q9Y6E0); test: Inhibition of MST3 ACT labeling site in human A-375 cells at 0.05 uM by KiNativ Profiling analysis relative to control; format: cell-based
Chain of Serine/threonine-protein kinase 24 (Homo sapiens) (Q9Y6E0 whole entry, looked up): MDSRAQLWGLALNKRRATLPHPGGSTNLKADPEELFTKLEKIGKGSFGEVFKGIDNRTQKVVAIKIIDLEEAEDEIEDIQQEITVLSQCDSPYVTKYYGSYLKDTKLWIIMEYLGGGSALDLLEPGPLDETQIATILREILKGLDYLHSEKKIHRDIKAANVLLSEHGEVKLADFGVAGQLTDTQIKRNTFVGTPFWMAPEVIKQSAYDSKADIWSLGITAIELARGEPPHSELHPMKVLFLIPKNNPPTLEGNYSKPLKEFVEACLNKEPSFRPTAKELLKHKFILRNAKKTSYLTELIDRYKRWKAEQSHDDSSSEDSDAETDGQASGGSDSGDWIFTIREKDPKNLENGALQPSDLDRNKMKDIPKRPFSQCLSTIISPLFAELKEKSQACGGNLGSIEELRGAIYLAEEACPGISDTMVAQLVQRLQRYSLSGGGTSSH

[8] = molecular target: T3, Inhibitor of nuclear factor kappa-B kinase subunit epsilon (Homo sapiens) (UniProt Q14164); test: Inhibition of IKK-epsilon (unknown origin) at 1 uM by Ambit Kinomescan binding assay relative to control; values are per cent of control
T3 sequence (whole entry): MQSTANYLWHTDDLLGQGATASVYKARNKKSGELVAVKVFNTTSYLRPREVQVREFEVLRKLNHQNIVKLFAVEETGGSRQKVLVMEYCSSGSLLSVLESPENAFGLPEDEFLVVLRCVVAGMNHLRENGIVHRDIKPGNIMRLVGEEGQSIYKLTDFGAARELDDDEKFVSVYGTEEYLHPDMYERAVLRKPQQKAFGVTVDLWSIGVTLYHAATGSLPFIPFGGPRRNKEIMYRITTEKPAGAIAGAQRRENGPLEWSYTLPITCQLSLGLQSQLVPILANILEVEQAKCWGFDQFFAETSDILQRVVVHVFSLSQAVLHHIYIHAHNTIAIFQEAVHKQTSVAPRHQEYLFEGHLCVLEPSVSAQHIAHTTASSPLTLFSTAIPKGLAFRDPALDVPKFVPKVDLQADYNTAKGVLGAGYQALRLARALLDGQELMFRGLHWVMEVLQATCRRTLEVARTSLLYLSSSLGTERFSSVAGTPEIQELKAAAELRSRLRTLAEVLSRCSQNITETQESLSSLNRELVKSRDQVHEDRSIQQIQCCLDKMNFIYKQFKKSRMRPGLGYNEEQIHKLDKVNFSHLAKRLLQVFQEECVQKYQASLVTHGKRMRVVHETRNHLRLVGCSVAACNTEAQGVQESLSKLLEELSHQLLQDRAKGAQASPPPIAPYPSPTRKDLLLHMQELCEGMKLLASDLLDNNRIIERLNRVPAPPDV

[9] = molecular target: Receptor-type tyrosine-protein kinase FLT3 (Homo sapiens) (UniProt P36888); test: Inhibition of FLT3 (unknown origin) at 1 uM by Ambit Kinomescan binding assay relative to control; values are per cent of control
[10] = molecular target: Receptor tyrosine-protein kinase erbB-3 (Homo sapiens) (UniProt P21860); test: Inhibition of HER3/ErbB3 Lys1 labeling site in human A-375 cells at 0.05 uM by KiNativ Profiling analysis relative to control; format: cell-based
[11] = molecular target: Wee1-like protein kinase (Homo sapiens) (UniProt P30291); test: Inhibition of Wee1 Lys2 labeling site in human A-375 cells at 0.05 uM by KiNativ Profiling analysis relative to control; format: cell-based
[12] = molecular target: Serine/threonine-protein kinase Nek4 (Homo sapiens) (UniProt P51957); test: Inhibition of NEK4 Lys2 labeling site in human Huh-7 cell lysate at 1 uM by KiNativ Profiling analysis relative to control; format: subcellular
Chain of Serine/threonine-protein kinase Nek4 (Homo sapiens) (P51957 whole entry, looked up): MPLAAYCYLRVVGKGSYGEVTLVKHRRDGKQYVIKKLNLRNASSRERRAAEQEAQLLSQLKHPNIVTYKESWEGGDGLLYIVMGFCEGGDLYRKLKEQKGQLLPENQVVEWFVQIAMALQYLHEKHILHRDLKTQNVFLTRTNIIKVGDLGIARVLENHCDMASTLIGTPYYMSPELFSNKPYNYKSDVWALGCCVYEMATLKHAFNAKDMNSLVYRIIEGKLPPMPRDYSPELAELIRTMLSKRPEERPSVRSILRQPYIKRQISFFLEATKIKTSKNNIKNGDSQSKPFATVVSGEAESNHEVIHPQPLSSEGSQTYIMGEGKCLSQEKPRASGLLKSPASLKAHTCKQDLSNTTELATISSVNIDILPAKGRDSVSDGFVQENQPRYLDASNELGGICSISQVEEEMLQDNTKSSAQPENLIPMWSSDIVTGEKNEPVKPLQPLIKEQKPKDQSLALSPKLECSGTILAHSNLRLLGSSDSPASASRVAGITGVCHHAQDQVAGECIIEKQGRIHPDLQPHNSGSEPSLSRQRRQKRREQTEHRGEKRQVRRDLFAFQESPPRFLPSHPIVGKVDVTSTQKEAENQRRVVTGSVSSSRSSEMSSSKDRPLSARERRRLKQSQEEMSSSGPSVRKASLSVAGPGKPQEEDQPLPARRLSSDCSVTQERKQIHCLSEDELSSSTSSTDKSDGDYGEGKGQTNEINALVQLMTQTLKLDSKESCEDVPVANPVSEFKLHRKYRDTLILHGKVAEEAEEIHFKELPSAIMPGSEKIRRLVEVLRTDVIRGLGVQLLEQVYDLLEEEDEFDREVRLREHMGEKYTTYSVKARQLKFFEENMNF

[13] = molecular target: T2, Tyrosine-protein kinase ABL2; test: Inhibition of ARG ACT labeling site in human Huh-7 cells at 1 uM by KiNativ Profiling analysis relative to control; format: cell-based
[14] = molecular target: Tyrosine-protein kinase CSK (Homo sapiens, UniProt P41240); test: Inhibition of CSK ACT labeling site harbouring VSDFGLTKEASSTQDTGK in human Huh-7 cell lysate at 1 uM by KiNativ Profiling analysis relative to control; format: subcellular
[15] = molecular target: Ribosomal protein S6 kinase alpha-3 (Homo sapiens) (UniProt P51812); test: Inhibition of RSK2 domain1 Lys2 labeling site in human Huh-7 cell lysate at 1 uM by KiNativ Profiling analysis relative to control; format: subcellular
Chain of Ribosomal protein S6 kinase alpha-3 (Homo sapiens) (P51812 whole entry, the tested form may be a part): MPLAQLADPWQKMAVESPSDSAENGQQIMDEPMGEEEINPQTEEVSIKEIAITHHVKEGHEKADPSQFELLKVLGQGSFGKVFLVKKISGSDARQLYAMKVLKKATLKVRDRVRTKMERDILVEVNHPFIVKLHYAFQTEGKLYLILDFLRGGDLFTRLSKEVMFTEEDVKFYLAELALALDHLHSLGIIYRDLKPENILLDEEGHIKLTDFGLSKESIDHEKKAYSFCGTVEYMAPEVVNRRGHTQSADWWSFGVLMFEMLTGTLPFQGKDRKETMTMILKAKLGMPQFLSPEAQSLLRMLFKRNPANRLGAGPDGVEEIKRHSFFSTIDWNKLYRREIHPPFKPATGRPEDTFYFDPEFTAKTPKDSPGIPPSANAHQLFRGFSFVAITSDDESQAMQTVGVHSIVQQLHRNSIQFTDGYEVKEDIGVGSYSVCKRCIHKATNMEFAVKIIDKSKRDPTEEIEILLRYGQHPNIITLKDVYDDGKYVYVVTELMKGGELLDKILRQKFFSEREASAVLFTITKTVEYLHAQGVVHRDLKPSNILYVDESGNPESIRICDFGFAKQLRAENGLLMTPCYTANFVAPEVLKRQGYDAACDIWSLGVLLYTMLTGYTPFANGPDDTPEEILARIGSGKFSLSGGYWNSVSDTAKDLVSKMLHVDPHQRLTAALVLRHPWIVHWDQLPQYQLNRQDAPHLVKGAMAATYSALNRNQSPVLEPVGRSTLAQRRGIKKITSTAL

[16] = molecular target: Calcium/calmodulin-dependent protein kinase type II subunit alpha (Homo sapiens) (UniProt Q9UQM7); test: Inhibition of CaMK2a Lys2 labeling site in human Huh-7 cells at 1 uM by KiNativ Profiling analysis relative to control; format: cell-based
Chain of Calcium/calmodulin-dependent protein kinase type II subunit alpha (Homo sapiens) (Q9UQM7 whole entry): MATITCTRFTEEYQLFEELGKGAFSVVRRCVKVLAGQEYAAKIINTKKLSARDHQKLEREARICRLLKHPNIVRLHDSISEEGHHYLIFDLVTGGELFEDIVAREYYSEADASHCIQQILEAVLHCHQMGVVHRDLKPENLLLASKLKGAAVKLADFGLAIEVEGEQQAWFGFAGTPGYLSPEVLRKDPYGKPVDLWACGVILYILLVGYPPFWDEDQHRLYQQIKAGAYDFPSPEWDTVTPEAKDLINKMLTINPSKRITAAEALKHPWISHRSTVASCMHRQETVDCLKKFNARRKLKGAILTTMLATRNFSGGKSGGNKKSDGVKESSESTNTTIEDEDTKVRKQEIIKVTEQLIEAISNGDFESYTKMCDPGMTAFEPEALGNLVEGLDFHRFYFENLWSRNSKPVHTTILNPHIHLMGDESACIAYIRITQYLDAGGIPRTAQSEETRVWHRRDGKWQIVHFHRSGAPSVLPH

Chain of Serine/threonine-protein kinase 38-like (Homo sapiens) (Q9Y2H1 2-464 limits assumed): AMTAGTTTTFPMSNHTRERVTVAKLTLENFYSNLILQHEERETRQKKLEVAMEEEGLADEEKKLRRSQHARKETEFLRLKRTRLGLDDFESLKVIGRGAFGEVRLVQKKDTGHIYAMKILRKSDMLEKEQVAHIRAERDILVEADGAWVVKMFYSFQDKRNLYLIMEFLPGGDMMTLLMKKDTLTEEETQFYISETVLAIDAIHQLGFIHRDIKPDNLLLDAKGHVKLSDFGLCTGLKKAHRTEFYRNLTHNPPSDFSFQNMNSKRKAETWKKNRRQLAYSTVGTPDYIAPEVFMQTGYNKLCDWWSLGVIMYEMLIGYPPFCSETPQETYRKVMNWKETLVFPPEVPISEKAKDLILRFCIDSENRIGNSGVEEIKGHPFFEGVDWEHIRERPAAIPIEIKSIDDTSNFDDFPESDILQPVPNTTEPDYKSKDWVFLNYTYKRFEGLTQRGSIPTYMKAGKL

Question: How did the inhibition [1] turn out when `CCN1CCN(Cc2ccc(NC(=O)c3ccc(C)c(Oc4ccnc5[nH]ccc45)c3)cc2C(F)(F)F)CC1` was run?
Answer: 16.9%

Question: And the inhibition [2]?
Answer: 2.8%

Question: And the inhibition [3]?
Answer: 84.8%

Question: What about the inhibition [4] of the same molecule?
Answer: 98.1%

Question: What about the inhibition [5] of the same molecule?
Answer: 19.8%

Question: With `CCN1CCN(Cc2ccc(NC(=O)c3ccc(C)c(/C=C/c4cnc5[nH]ccc5c4OC)c3)cc2C(F)(F)F)CC1` as the molecule, how does the residual activity [6] read?
Answer: 35%

Question: And the inhibition [7]?
Answer: 13.5%

Question: What about the residual activity [8] of the same molecule?
Answer: 100%

Question: What about the residual activity [9] of the same molecule?
Answer: 0.15%

Question: What about the inhibition [10] of the same molecule?
Answer: 21.3%

Question: And the inhibition [11]?
Answer: 19.2%

Question: Which results are given for `CNc1cc(Oc2cc(C(=O)Nc3cc(N4CCN(C)CC4)cc(C(F)(F)F)c3)ccc2C)ncn1`?
Answer: inhibition [12]: -2.2%; inhibition [13]: 31.6%; inhibition [14]: 7.9%; inhibition [15]: 20.7%; inhibition [16]: 20.3%
